Assay results published in patent US20110300110A1, “ENAMINOCARBONYL COMPOUND/BENEFICIAL ORGANISM COMBINATIONS” (BAYER CROPSCIENCE AG, priority 2008, published 2011).

Legend:
Format in all cases: in vivo
[1] = system: Episyrphus balteatus larvae; test: Larvae treatment Episyrphus: kill of beneficial species larvae on Savoy cabbage
Experimental: (§1) Foliar treatment is carried out using compound (I-5) in a concentration of 75 g of active compound per hectare.
(§2) Drench treatment is carried out using compound (I-5) in a concentration of 10 mg of active compound per plant.
(§3) Foliar treatment with Karate Zeon CS100 as toxic control was carried out in a concentration of 12.5 g of active compound per hectare.
(§4) Beneficial species: Episyrphus balteatus larvae Pest: Myzus persicae
(§5) Per experiment, 3 repetitions with in each case 2 pot cages with in each case 5 larvae are carried out.
(§6) For the experiment, Savoy cabbage plants are grown in pots having a diameter of 14 cm, placed in a breeding cage and infested thoroughly with Myzus persicae.
(§7) After the spray coating has dried on, a quartz sand layer of a thickness of about 1 cm is applied to the soil in the pot, and the pot cage is put over the plant. In each case 5 Episyrphus larvae are then counted out, and in each case 5 specimen are added to the plants in the pot cage.
(§8) For each plant, at the beginning the Myzus persicae number is estimated at the appropriate points in time and the dead, dying and alive larvae are counted separately. All larvae, i.e. all larvae present on the plant and the surface of the quartz sand base, are counted.

[2] = system: Myzus persicae; test: Larvae treatment Episyrphus: infestation by Myzus persicae on Savoy cabbage; conditions: Episyrphus larvae added
Experimental: as §1, §2, §3, §4, §5, §6, §7, §8

[3] = system: adult Nesidiocoris tenuis; test: Residual test with adult Nesidiocoris tenuis on tomato leaves
Experimental: Foliar treatment is carried out using compound (I-5) in a concentration of 150 g of active compound per hectare.
as §2
Foliar treatment with Karate Zeon CS100 as toxic control was carried out in a concentration of 12.5 g of active compound per hectare. The active compound in its respective formulation is brought to the required concentration by dilution with water.
Tomato plants cultivated in a greenhouse are treated with the respective active compound solutions. 1, 8, 15 and 22 days after the application, leaves are plucked from the test plants (5 samples per plot). The individual leaves are then mounted in test cages. 10 adult Nesidiocoris tenuis are added to each cage. The test cages are placed under controlled conditions in a climatized chamber. The kill of the insects is determined after 24, 48 and 72 hours of exposure.

[4] = 5 days after application, drench 10 mg a.i./plant
[5] = 5 days after application, foliar: (I-5) 75 g a.i./ha, Karate Zeon CS100 12.5 g a.i./ha

For `O=C1C=C(N(Cc2ccc(Cl)nc2)CC(F)F)CO1` [compound (I-5), 4-{[(6-chloropyrid-3-yl)methyl](2,2-difluoroethyl)amino}furan-2(5H)-one], the “kill of Episyrphus balteatus larvae [% Abbott]” value (“kill … [% Abbott]” for short) ([1]; 0 days after application, drench 10 mg a.i./plant) was 0%, the “kill … [% Abbott]” value ([1]; 0 days after application, foliar: (I-5) 75 g a.i./ha, Karate Zeon CS100 12.5 g a.i./ha) was 0% and the “kill … [% Abbott]” value ([1]; 1 day after application, drench 10 mg a.i./plant) was 10.3%. For the same compound, the “kill … [% Abbott]” value ([1]; 1 day after application, foliar: (I-5) 75 g a.i./ha, Karate Zeon CS100 12.5 g a.i./ha) was 6.1%, the “kill … [% Abbott]” value ([1]; 3 days after application, drench 10 mg a.i./plant) was 10.3% and the “kill … [% Abbott]” value ([1]; 3 days after application, foliar: (I-5) 75 g a.i./ha, Karate Zeon CS100 12.5 g a.i./ha) was 9%. The “kill … [% Abbott]” value [1, 4] was 0%, the “kill … [% Abbott]” value [1, 5] was 0% and the “Infestation by Myzus persicae (number per plant)” value (from here on “Infestation … (number per plant)”) [2, 4] was 23 number per plant. The “Infestation … (number per plant)” value [2, 5] was 0 number per plant, the “Infestation … (number per plant)” value ([2]; prior to application (baseline), drench 10 mg a.i./plant) was 394 number per plant and the “Infestation … (number per plant)” value ([2]; prior to application (baseline), foliar: (I-5) 75 g a.i./ha, Karate Zeon CS100 12.5 g a.i./ha) was 375 number per plant. For the same compound, the “Activity against adult Nesidiocoris tenuis on tomato [% kill according to Schneider-Orelli]” value ([3]; leaves plucked 1 day after application, drench 10 mg a.i./plant) was 4.9%, the “Activity against adult Nesidiocoris tenuis on tomato [% kill according to Schneider-Orelli]” value ([3]; leaves plucked 1 day after application, foliar: (I-5) 150 g a.i./ha, Karate Zeon CS100 12.5 g a.i./ha) was 91.1% and the “Activity against adult Nesidiocoris tenuis on tomato [% kill according to Schneider-Orelli]” value ([3]; leaves plucked 8 days after application, drench 10 mg a.i./plant) was 47.3%. The “Activity against adult Nesidiocoris tenuis on tomato [% kill according to Schneider-Orelli]” value ([3]; leaves plucked 8 days after application, foliar: (I-5) 150 g a.i./ha, Karate Zeon CS100 12.5 g a.i./ha) was 81.3%, the “Activity against adult Nesidiocoris tenuis on tomato [% kill according to Schneider-Orelli]” value ([3]; leaves plucked 15 days after application, drench 10 mg a.i./plant) was 24.4% and the “Activity against adult Nesidiocoris tenuis on tomato [% kill according to Schneider-Orelli]” value ([3]; leaves plucked 15 days after application, foliar: (I-5) 150 g a.i./ha, Karate Zeon CS100 12.5 g a.i./ha) was 32.1%. The “Activity against adult Nesidiocoris tenuis on tomato [% kill according to Schneider-Orelli]” value ([3]; leaves plucked 22 days after application, drench 10 mg a.i./plant) was 66% and the “Activity against adult Nesidiocoris tenuis on tomato [% kill according to Schneider-Orelli]” value ([3]; leaves plucked 22 days after application, foliar: (I-5) 150 g a.i./ha, Karate Zeon CS100 12.5 g a.i./ha) was 45.8%.
